According to patent US20210267978A1, “NANOPARTICLE FORMULATIONS OF IKE AND METHODS OF USE THEREOF” (The Trustees of Columbia University in the City of New York, priority 2018, published 2021):
Where two headings read alike, the source gives them in different places.

Assays:
[1] = Pharmacokinetic analysis in NCG mice bearing SUDHL6 xenografts (plasma and tumor, LC-MS); type: in vivo; settings: SUDHL6-xenograft NCG mice; for AUC(0-t) / Cmax / Tmax / half-life / concentration at 24 h: mouse; for AUC(0-t) / Cmax / Tmax / half-life / concentration at 24 h / Tlast: single dose 50 mg/kg IP; for concentration at 24 h: read-out: Clast
Experimental: IKE was dissolved in 5% DMSO/95% HBSS at pH 4 to create a 5 mg/mL solution or 3 mg/mL solution. 5% DMSO/95% HBSS at pH 4 was used as vehicle 1. IKE PEG-PLGA nanoparticles and unfunctionalized PEG-PLGA nanoparticles (without IKE) (vehicle 2) prepared with a NanoAssemblr were dialyzed with deionized water overnight, and the water was changed at least twice. Dialyzed IKE-PEG-PLGA nanoparticles and unfunctionalized PEG-PLGA nanoparticles were concentrated by Amicon Ultra-15 Centrifugal Filter Units to create a solution with 80 mg/mL PEG-PLGA nanoparticles. All above solutions were sterilized by filtering through a 0.2 μm syringe filter.
NCG mice 6-weeks of age were injected with 10 million SUDHL-6 cells subcutaneously. Visible tumors appeared after 2 weeks. Tumor size was measured by electronic caliper every 2 days and calculated using the formula: 0.5×length×width^2. After another 2 weeks, mice were randomly separated into group of 3 mice per cage with roughly tumor size (1200 mm^3). Mice were dosed at 50 mg/kg IKE, 22 mg/kg IKE, 22 mg/kg IKE PEG-PLGA nanoparticles (equal to 600 mg/kg PEG-PLGA) using IP at one time and samples were collected at 0, 1, 2, 3, 4, 6, and 24 h with three mice per time point. Mice were dosed with Vehicle 1 and Vehicle 2 (600 mg/kg PEG-PLGA) by IP and samples were collected at 24 h. Mice were euthanized using a CO2 gas chamber before xenograft dissection and cardio puncture. Plasma samples were collected and analyzed as described above. Tumors were dissected and divided into 6 segments, frozen on dry ice, and stored at −80° C. Before IKE extraction, tumor tissue samples were thawed at room temperature and weighed. A 2.5-fold ratio of volume of phosphate-buffered saline (PBS) (mL/g) was added to the sample and homogenized using Bead Ruptor 4 at speed 4 for 30 sec. The homogenization step was repeated until the samples were homogenized well (final weight/volume was 0.4 g/mL). 100 μL of homogenized tissue (equal to 40 mg) was added to a new microfuge tube, 900 μL of acetonitrile was added. The samples were mixed for at least 5 minutes by rotating on a shaker and were sonicated for at least 30 sec prior to centrifugation for 10 min at 4,000×g and 4° C. The supernatant was removed and dried on the GeneVac overnight on the HPLC setting. After drying, the samples were resuspended in 100 μL of methanol and analyzed on the LC-MS with each sample analyzed twice. Technical replicates were averaged. The concentration of IKE in the sample was determined by comparison against a standard curve of IKE in the range of 25 to 2,500 ng/mL. Pharmacodynamic analysis of ferroptosis biomarkers is described in the RT-qPCR, glutathione, immunofluorescence, and lipidomics sections below. Pharmacokinetics parameters of IKE were assessed using Prism fitted with Lognormal of one phase exponential decay.

HBL 1 = experiment: DLBCL cell line sensitivity to IKE (CellTiter-Glo viability, 24 h); type: cell-based; settings: HBL 1, 24 hours
Experimental: DLBCL cells were plated at 10,000 cells per well in white 384-well plates (32 μL per well) in technical duplicates and incubated overnight. The cells were then treated with 8 μL medium containing a two-fold dilution series of vehicle (DMSO), IKE (starting from 100 μM) with or without Fer-1 (starting from 200 μM). After 24 h incubation, 40 μL of 50% CellTiter-Glo (Promega) 50% cell culture medium was added to each well and incubated at room temperature with shaking for 15 min. Luminescence was measured using a Victor X5 plate reader (PerkinElmer). All cell viability data were normalized to the DMSO vehicle condition. Experiments were performed three independent times with different passages for each cell line.

[2] = tested on: SUDHL6 xenograft tumor tissue; experiment: Immunofluorescence on paraffin-embedded tumor sections after one IKE dose; type: in vivo, NCG mice; settings: 4 h after one dose of IKE
Experimental: NCG mice 6-weeks of age were injected with 10 million SUDHL-6 cells subcutaneously. Visible tumors appeared after 2 weeks. Tumor size was measured by electronic caliper every 2 days and calculated using the formula: 0.5×length×width^2. After another 2 weeks, mice were randomly separated into group of 3 mice per cage with roughly tumor size (1200 mm^3). Mice were dosed at 50 mg/kg IKE, 22 mg/kg IKE, 22 mg/kg IKE PEG-PLGA nanoparticles (equal to 600 mg/kg PEG-PLGA) using IP at one time and samples were collected at 0, 1, 2, 3, 4, 6, and 24 h with three mice per time point. Mice were dosed with Vehicle 1 and Vehicle 2 (600 mg/kg PEG-PLGA) by IP and samples were collected at 24 h. Mice were euthanized using a CO2 gas chamber before xenograft dissection and cardio puncture. Plasma samples were collected and analyzed as described above. […] After drying, the samples were resuspended in 100 μL of methanol and analyzed on the LC-MS with each sample analyzed twice. […] The concentration of IKE in the sample was determined by comparison against a standard curve of IKE in the range of 25 to 2,500 ng/mL. […] Pharmacokinetics parameters of IKE were assessed using Prism fitted with Lognormal of one phase exponential decay. […]
Tumor tissue was fixed in 4% paraformaldehyde (PFA) for 24 h at 4° C. followed by washing three times with PBS. […] Then the above steps were followed for staining and quantification.

For `CC(C)Oc1ccc(C(=O)Cn2ccnc2)cc1-n1c(CN2CCN(C(=O)COc3ccc(Cl)cc3)CC2)nc2ccccc2c1=O` [IKE, Imidazole ketone erastin], the highest plasma concentration ([1]; single dose 50 mg/kg i.p.) was 5.2 µg/mL, the highest tumor accumulation ([1]; single dose 50 mg/kg i.p.) was 2.5 µg/mL and the AUC(0-t) ([1]; plasma) was 10900 ng·h/mL. For the same compound, the Cmax ([1]; plasma) was 5180 ng/mL, the Tmax ([1]; plasma) was 1.35 h and the half-life ([1]; plasma) was 1.83 h. For the same compound, the concentration at 24 h ([1]; plasma) was 30 ng/mL, the AUC(0-t) ([1]; tumor tissue) was 9860 ng·h/mL and the Cmax ([1]; tumor tissue) was 2520 ng/mL. The Tmax ([1]; tumor tissue) was 3.3 h, the half-life ([1]; tumor tissue) was 3.5 h and the concentration at 24 h ([1]; tumor tissue) was 283 ng/mL. The Tlast ([1]; plasma) was 24 h, the Tlast ([1]; tumor tissue) was 24 h and the “cell line sensitivity to IKE (IC50 class)” value (HBL 1) was “moderately resistant”. The “increase of 8-OHdG (fluorescence intensity) relative to vehicle” value [2] was 1.5 fold and the “increase of dihydropyridine-MDA-lysine adducts (fluorescence intensity) relative to vehicle” value [2] was 1.6 fold.
